Experimental data reported in article PMC10895668, “Lead Optimization of the 5-Phenylpyrazolopyrimidinone NPD-2975 toward Compounds with Improved Antitrypanosomal Efficacy” (Journal of Medicinal Chemistry, 2024).
Like-named read-outs stand apart in the source and are kept apart here.

Experiments:
T. b. brucei [1] = test system: T. b. brucei; parameters: method as in PMID 37471520; conditions: previous in vivo results ref 21, cited from earlier work
in vivo = conditions: female, Swiss, mouse, in vivo
Experimental: (§1) The antiparasitic assays were carried out exactly as described in Blaazer et al.([39]) Metabolic stability, pharmacokinetics, acute mouse infection model results were collected as described previously.[21] All animal experiments were conducted in compliance with institutional guidelines and following approval by the Ethical Committee of the University of Antwerp, Belgium [UA-ECD 2014–96]. Female Swiss mice (15–20 g), were purchased from Janvier (Le Genest Saint Isle, France). […] Animals were treated PO b.i.d. for 5 days at 25 and 50 mg/kg 31c. For the SL-RNA qPCR experiments blood was collected sublingually and subjected to erythrocyte lysis before extracting RNA with the QIAamp RNA Blood Mini kit (Qiagen). […] Small pieces of fat, brain, and spleen tissue were excised and immediately transferred to RNA later (Qiagen) and incubated overnight at 4 °C. RNA extraction was performed as instructed in the RNeasy Mini Plus Kit manual (Qiagen). The one-step SensiFAST SYBR Hi-Rox PCR kit (Bioline USA Inc., via Gentaur Belgium BVBA, Kampenhout, Belgium) was used for the PCR with the following forward and reverse primers, respectively 5′-[…]-3′ and 5′-[…]-3′. An initial activation step of 10 min at 45 °C and 10 min at 95 °C was used, followed by the amplification step for 40 cycles (15 s at 95 °C, 15 s 50 °C and 15 s at 60 °C). At last, the melting curves were generated with an increment of 0.3 °C (15 s at 95 °C 1 min at 45 °C and 15 s at 95 °C). The PCR was run on the Step One Plus real-time PCR system (Applied Biosystems, California, USA). An additional qPCR was performed with the mouse housekeeping gene Eef2 to confirm successful RNA extraction.
Blood drops were sampled before treatment and at 0.5, 1, 2, 4, 6, and 24 h after PO dosage; samples after IP dosage were identical with an additional time point of 0.25 h. The blood drops were analyzed adopting the dry blood spot technique and analysis by LC-MS^2. Briefly, blood was collected from the retro-orbital complex using capillary tubes and dropped (15 μL) on WhatmanFTADMPK cards (B). The spots were left to air-dry at room temperature for at least 2 h. For analysis, a 6 mm disk was punched out and extracted in 75:25 MeCN/water containing the internal standard tolbutamide. The amount of parent compound was determined using liquid chromatography (UPLC) (Waters Aquity) coupled with tandem quadrupole mass spectrometry (MS^2) (Waters Xevo) equipped with an electrospray ionization (ESI) interface and operated in multiple reaction monitoring mode. Standard curves in whole blood were made for calibration and validation. Standard PK parameters were determined using Topfit software.
Brain tissue of the animals was collected on ice at autopsy 24 h post-treatment (50 mg/kg oral dose) after perfusion. […] The tissues were immediately homogenized using a GentleMacs tissue homogenizer. The tissue samples were subjected to protein precipitation by adding MeCN, followed by a centrifugation step at 4 °C for 5 min at 21, 130 g. The supernatant was further diluted in 75:25 MeCN/water for LC-MS^2 analysis as described above.

MRC-5 cells [2] = conditions: Figure 1; previously reported series ref 21; cited from earlier work
MRC-5 cells [3] = test: MRC-5SV2 cytotoxicity assay; assay type: cell-based; conditions: Homo sapiens, MRC5, 72 h; cytotoxicity, 3 days incubation; mean ± SD, n ≥ 2; read-out: pIC50 MRC-5 (converted)
Experimental: The synthesized analogues were tested against T. b. brucei, and inhibition of MRC-5 (human lung fibroblasts MRC-5SV40) cell proliferation was included as cytotoxicity control. […] Analogue 17 with an amino group instead of the carbonyl group was prepared to improve solubility for further modification. […] In vitro experiments were carried out with the bloodstream form of the T. b. brucei Squib strain (suramin-sensitive). […] All cultures and assays were conducted at 37 °C under an atmosphere of 5% CO2. […] Cell growth is compared to untreated-control wells (100% cell growth) and medium-control wells (0% cell growth). […] After 4 h at 37 °C, fluorescence is measured (λex 550 nm, λem 590 nm). The results are expressed as % reduction in cell growth/viability compared to control wells and an IC50 and an IC90 (50 and 90% inhibitory concentrations) are determined.

[4] = test system: peritoneal mouse macrophages (PMM); test: Cytotoxicity on peritoneal mouse macrophages; assay type: cell-based; conditions: Macrophage, n ≥ 2
[5] = human, microsomes, 1 h
[6] = mouse, microsomes
T. b. rhodesiense = test: Trypanosoma susceptibility assay (resazurin viability); assay type: cell-based; conditions: Trypanosoma brucei, mean ± SD, n ≥ 2, read-out: pIC50 T. b. rhodesiense (converted)
Experimental: The antiparasitic assays were carried out exactly as described in Blaazer et al.([39]) Metabolic stability, pharmacokinetics, acute mouse infection model results were collected as described previously.[21] All animal experiments were conducted in compliance with institutional guidelines and following approval by the Ethical Committee of the University of Antwerp, Belgium [UA-ECD 2014–96]. Female Swiss mice (15–20 g), were purchased from Janvier (Le Genest Saint Isle, France). […] Animals were treated PO b.i.d. for 5 days at 25 and 50 mg/kg 31c. For the SL-RNA qPCR experiments blood was collected sublingually and subjected to erythrocyte lysis before extracting RNA with the QIAamp RNA Blood Mini kit (Qiagen). […]
Parasites were counted in a KOVA counting chamber and diluted to 1.5 × 10^4 parasites/well of a 96-well plate (200 μL total volume), upon which the prediluted test compounds were added. […] After 3 days of incubation, parasite growth was assessed fluorimetrically after addition of 50 μL of resazurin per well. After 6 h (T. b. rhodesiense) or 24 h (T. b. brucei) at 37 °C, fluorescence is measured (λex 550 nm, λem 590 nm). Parasite viability was assessed using the resazurin viability assay, and drug activity was calculated as percentage viability reduction compared to nontreated controls.

T. b. brucei [7] = test: as above; assay type: cell-based
Experimental: as §1
In vitro experiments were carried out with the bloodstream form of the T. b. brucei Squib strain (suramin-sensitive). Parasites were routinely cultured in T25 culture flasks containing 10 mL of HMI-9 medium (Invitrogen) supplemented with 10% heat-inactivated fetal bovine serum (Life Technologies) and 2.5 μg/mL Geneticin (Life Technologies). MRC-5SV2 cells were cultured in MEM + Earl’s salts-medium, supplemented with 2 mM L-glutamine, 16.5 mM NaHCO3, and 5% inactivated fetal calf serum. All cultures and assays were conducted at 37 °C under an atmosphere of 5% CO2.
Parasites were counted in a KOVA counting chamber and diluted to 1.5 × 10^4 parasites/well of a 96-well plate (200 μL total volume), upon which the prediluted test compounds were added. Drug exposure covered a 72 h period without renewal of the culture medium. After 3 days of incubation, parasite growth was assessed fluorimetrically after addition of 50 μL of resazurin per well. After 6 h (T. b. rhodesiense) or 24 h (T. b. brucei) at 37 °C, fluorescence is measured (λex 550 nm, λem 590 nm). Parasite viability was assessed using the resazurin viability assay, and drug activity was calculated as percentage viability reduction compared to nontreated controls.

Trypanosoma cruzi = test: Antiparasitic assay, T. cruzi; assay type: cell-based; conditions: mean ± SD, n ≥ 2, read-out: pIC50 T. cruzi (converted)
Experimental: (§2) First, they were tested in vitro against the protozoan species Trypanosoma cruzi and Leishmania infantum and the clinically relevant T. b. rhodesiense.
as §1, with “An initial activation step of 10 min at 45 °C and 10 min at 95 °C was used, followed by the amplification step for 40 cycles (15 s at 95 °C, 15 s 50 °C and 15 s at 60 °C). At last, the melting curves were generated with an increment of 0.3 °C (15 s at 95 °C 1 min at 45 °C and 15 s at 95 °C). The PCR was run on the Step One Plus real-time PCR system (Applied Biosystems, California, USA). An additional qPCR was performed with the mouse housekeeping gene Eef2 to confirm successful RNA extraction.” left out

Leishmania infantum = test: Antiparasitic assay, L. infantum; assay type: cell-based; conditions: mean ± SD, n ≥ 2, read-out: pIC50 L. infantum (converted)
Experimental: as §2
as §1, with “An initial activation step of 10 min at 45 °C and 10 min at 95 °C was used, followed by the amplification step for 40 cycles (15 s at 95 °C, 15 s 50 °C and 15 s at 60 °C). At last, the melting curves were generated with an increment of 0.3 °C (15 s at 95 °C 1 min at 45 °C and 15 s at 95 °C). The PCR was run on the Step One Plus real-time PCR system (Applied Biosystems, California, USA). An additional qPCR was performed with the mouse housekeeping gene Eef2 to confirm successful RNA extraction.” left out

parent compound remaining [5]	time within which compound was metabolized [6] [min]	parent compound remaining ([6]; 1 h)	IC50 (T. b. rhodesiense) [µM]	IC50 (T. b. brucei [7]; Trypanosoma brucei, 72 h, T. b. brucei Squib bloodstream form, 72 h exposure, mean ± SD, n ≥ 2, read-out: pIC50 T. brucei (converted)) [µM]	IC50 (Trypanosoma cruzi) [µM]	IC50 (Leishmania infantum) [µM]	Compound	survival (T. b. brucei [1]; 25 mg/kg group)	survival (T. b. brucei [1]; 50 mg/kg dose)	Tmax at 24 h (in vivo; ip, 10 mg/kg) [h]	Tmax at 24 h (in vivo; po, 50 mg/kg) [h]	MRC-5 pIC50 (MRC-5 cells [2])	IC50 (MRC-5 cells [3]) [µM]	IC50 [4] [µM]	improved potency compared to 2 (T. b. brucei [7]; T. brucei, versus compound 2) [fold]
							CC(C)c1n[nH]c2c(=O)[nH]c(-c3ccc(F)cc3)nc12 [compound 2]	all animals died at 11 days postinfection	all animals survived until the end of the experiment	0.25	3 ± 1.5	< 4.2	> 63.1	> 63.1	
at least 69%	≤ 15	at least 69%	0.01	0.01	> 63.1	> 63.1	O=c1[nH]c(-c2ccc(F)cc2)nc2c(C3CCCC3)n[nH]c12 [31a, 3-Cyclopentyl-5-(4-fluorophenyl)-1,6-dihydro-7H-pyrazolo[4,3-d]pyrimidin-7-one]						> 63.1	> 63.1	6
